{
  "source": "patent US20130001095A1",
  "about": "“METHOD OF PRODUCING COUPLED RADICAL PRODUCTS” (priority 2009, published 2013)",
  "origin": "cited, not measured here",
  "data": [
    {"smiles": "O=C([O-])CCCC(=O)[O-].[Na+].[Na+]", "note": "[Sodium glutarate]", "values": [
      {"measurement": "solubility in methanol", "setting": "methanol", "result": "not soluble"},
      {"measurement": "solubility in water", "setting": "water", "result": "soluble"}
    ]}
  ]
}
